Data published in US10597388B2, “Pyridazinone herbicides” (FMC CORPORATION, priority 2014, dated 2020).

How the values were obtained:
[1] = test system: Canada thistle (Cirsium arvense); assay: Test D controlled growth environment herbicide test, pre- and postemergence; type: in vivo
How it was run: (§1)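 Pre-emergence: seeds sown in silt loam soil were sprayed with compound in a non-phytotoxic solvent mix containing surfactant. Post-emergence: plants at 2 to 18 cm (1- to 4-leaf stage) in peat moss/vermiculite medium got the same formulation. Visual 0–100 rating versus controls after 14 to 21 d.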

[2] = test system: geranium, cutleaf (cutleaf geranium, Geranium dissectum); assay: as above; type: in vivo
How it was run: as §1

[3] = Postemergence, 31 g ai/ha, scale 0 to 100 (0 no effect, 100 complete control)
[4] = Postemergence, 125 g ai/ha, visual rating on scale 0 (no effect) to 100 (complete control), 14 to 21 d
[5] = Postemergence, 250 g ai/ha, scale 0 to 100 (0 no effect, 100 complete control)
[6] = Preemergence, 125 g ai/ha, scale 0 to 100 (0 no effect, 100 complete control)
[7] = Preemergence, 250 g ai/ha, scale 0 to 100, 0 no effect, 100 complete control
[8] = postemergence, 62 g ai/ha, scale 0 to 100, 0 no effect, 100 complete control

SMILES: Cc1nn(C)c(=O)c(-c2cccc3ccc(Br)cc23)c1O [Compound 126]
- Canada Thistle plant response rating [1, 3]: 98
- Plant response rating, Canada Thistle [1, 4]: 98
- Plant response rating, Canada Thistle [1, 5]: 100
- Plant response rating (scale of 0 to 100), Canada Thistle ([1]; Preemergence, 31 g ai/ha): 0
- Plant response rating, Canada Thistle ([1]; Preemergence, 62 g ai/ha, scale 0 to 100 (0 no effect, 100 complete control)): 15
- Plant response rating, Canada Thistle [1, 6]: 95
- Plant response rating, Canada Thistle [1, 7]: 95
- Plant response rating, Canada Thistle [1, 8]: 100
- Geranium, Cutleaf plant response rating [2, 3]: 30
- Plant response rating, Geranium, Cutleaf [2, 4]: 80
- Plant response rating, Geranium, Cutleaf [2, 5]: 90
- Plant response rating (scale of 0 to 100), Geranium, Cutleaf ([2]; Preemergence, 31 g ai/ha): 0
- Plant response rating (scale of 0 to 100), Geranium, Cutleaf ([2]; Preemergence, 62 g ai/ha): 0
- Plant response rating, Geranium, Cutleaf [2, 6]: 0
- Plant response rating, Geranium, Cutleaf [2, 7]: 15
- Plant response rating, Geranium, Cutleaf [2, 8]: 40
